Data reported in patent US20240270821A1, “GIP/GLP1/GCG TRI-RECEPTOR AGONISTS AND USES THEREOF” (priority 2023, published 2024).
Starred links: 1 amine or outer side, 2 acyl side, 3 side chain; linkers in the order of their positions; H or OH if unused. Non-standard residues stand in square brackets, D forms with d. Groups on a side chain read outwards from the residue. *: point of attachment. C20 diacid = O=C(O)CCCCCCCCCCCCCCCCCCC(=O)*; C18 diacid = O=C(O)CCCCCCCCCCCCCCCCC(=O)*; γGlu = O=C(O)[C@H](CCC(=O)[*:2])N[*:1]; αMeL = CC(C)C[C@](C)(N)C(=O)O; Orn = NCCC[C@H](N)C(=O)O; AEEA = NCCOCCOCC(=O)O; Aib = CC(C)(N)C(=O)O

Key:
Assay type in all cases: cell-based
hGIPR [1] = biological target: T1, hGIPR (Homo sapiens, UniProt P48546); experiment: Functional cAMP activity in the presence of 1% HSA; conditions: read-out: cAMP Rel EC50, hGIPR
T1 sequence (P48546 22-466): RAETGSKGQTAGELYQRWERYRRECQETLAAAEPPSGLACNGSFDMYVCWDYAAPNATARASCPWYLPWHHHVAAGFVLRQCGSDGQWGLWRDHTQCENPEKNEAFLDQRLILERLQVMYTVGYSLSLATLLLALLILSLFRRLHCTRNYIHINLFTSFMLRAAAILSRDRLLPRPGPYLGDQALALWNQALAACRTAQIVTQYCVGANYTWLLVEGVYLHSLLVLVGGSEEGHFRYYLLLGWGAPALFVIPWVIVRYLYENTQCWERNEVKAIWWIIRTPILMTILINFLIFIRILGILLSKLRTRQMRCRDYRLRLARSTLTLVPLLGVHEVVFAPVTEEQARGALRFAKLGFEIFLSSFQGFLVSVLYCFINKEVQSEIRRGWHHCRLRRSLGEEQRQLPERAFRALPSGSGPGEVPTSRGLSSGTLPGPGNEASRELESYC

hGLP-1R [2] = biological target: T2, hGLP-1R (Homo sapiens, UniProt P43220); experiment: Functional cAMP activity in the presence of 1% HSA; conditions: read-out: cAMP Rel EC50, hGLP-1R
T2 sequence (P43220 24-463): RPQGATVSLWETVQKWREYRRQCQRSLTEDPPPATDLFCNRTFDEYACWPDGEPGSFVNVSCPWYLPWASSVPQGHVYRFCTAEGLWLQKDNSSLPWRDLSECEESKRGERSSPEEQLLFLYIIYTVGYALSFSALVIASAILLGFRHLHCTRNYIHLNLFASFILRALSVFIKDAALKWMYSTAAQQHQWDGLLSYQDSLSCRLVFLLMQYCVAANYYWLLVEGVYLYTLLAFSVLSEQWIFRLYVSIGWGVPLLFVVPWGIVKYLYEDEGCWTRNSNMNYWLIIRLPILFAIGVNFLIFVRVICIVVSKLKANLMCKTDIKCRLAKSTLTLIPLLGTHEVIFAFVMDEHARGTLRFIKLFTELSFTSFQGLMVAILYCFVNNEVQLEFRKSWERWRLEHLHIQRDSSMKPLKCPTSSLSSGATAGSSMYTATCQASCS

human GcgR = human GcgR (Homo sapiens, UniProt P47871); experiment: Functional cAMP activity in the presence of 1% HSA; conditions: read-out: cAMP Rel EC50, hGcgR
Chain of human GcgR (P47871 26-477): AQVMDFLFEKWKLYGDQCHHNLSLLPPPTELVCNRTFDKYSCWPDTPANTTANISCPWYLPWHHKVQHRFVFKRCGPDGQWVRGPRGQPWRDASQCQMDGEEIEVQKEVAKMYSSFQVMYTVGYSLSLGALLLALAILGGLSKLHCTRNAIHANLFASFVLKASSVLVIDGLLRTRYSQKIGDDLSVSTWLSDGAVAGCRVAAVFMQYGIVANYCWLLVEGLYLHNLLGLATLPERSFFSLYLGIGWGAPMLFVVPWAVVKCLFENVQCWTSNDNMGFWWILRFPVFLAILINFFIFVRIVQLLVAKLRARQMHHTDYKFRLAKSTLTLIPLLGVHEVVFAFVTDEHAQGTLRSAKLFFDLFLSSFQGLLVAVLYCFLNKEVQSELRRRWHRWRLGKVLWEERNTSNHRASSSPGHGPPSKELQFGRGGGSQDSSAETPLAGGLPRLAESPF

human GLP1-R = human GLP1-R (Homo sapiens, UniProt P43220); experiment: GLP1-R internalization assay in HEK293 cells; conditions: for EC50: HEK293 cells expressing SNAP-GLP-1R, read-out: GLP1R Internalization EC50; for Internalization % TOP: normalized to maximum concentration of GLP-1 (100%)
Chain of human GLP1-R (P43220 24-463): as the sequence (P43220 24-463) above

hGLP-1R [3] = biological target: T2, hGLP-1R; experiment: Functional cAMP activation in the presence of 0.1% casein (no HSA); conditions: in the presence of 0.1% casein (no HSA); geometric mean; read-out: Relative cAMP EC50, hGLP-1R;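 for Relative cAMP EC50, hGIPR: intracellular cAMP rise after 30 min at 37 °C read by HTRF against a standard curve, scaled between buffer alone (0%) and top control ligand concentration (100%), four-parameter fit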;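 for Relative cAMP EC50, hGLP-1R: intracellular cAMP rise after 30 min at 37 °C read by HTRF, normalized between buffer only (0%) and maximal control ligand (100%), four-parameter variable-slope fit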;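 for Relative cAMP EC50, hGcgR: intracellular cAMP rise after 30 min at 37 °C, read by HTRF against a cAMP standard curve, scaled from buffer only (0%) to maximal control ligand response (100%)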
hGIPR [4] = biological target: T1, hGIPR; experiment: as above; conditions: in the presence of 0.1% casein (no HSA); geometric mean; read-out: Relative cAMP EC50, hGIPR
hGcgR = hGcgR (Homo sapiens, UniProt P47871); experiment: as above; conditions: in the presence of 0.1% casein (no HSA); geometric mean; read-out: Relative cAMP EC50, hGcgR;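 note: intracellular cAMP rise after 30 min at 37 °C, read by HTRF against a cAMP standard curve, scaled from buffer only (0%) to maximal control ligand response (100%)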
Chain of hGcgR (P47871 26-477): as the sequence (P47871 26-477) above

Substance	EC50 (hGIPR [1]) [nM]	EC50 (hGLP-1R [2]) [nM]	EC50 (human GcgR) [nM]	EC50 (human GLP1-R) [nM]	Internalization % TOP (human GLP1-R) [%]	EC50 (hGLP-1R [3]) [nM]	EC50 (hGIPR [4]) [nM]	EC50 (hGcgR) [nM]
H-Y[Aib]QGTFTSDFS[Orn][αMeL]LDKK([AEEA-AEEA-γGlu-C20 diacid])AQ[Aib]AFIEYLLE[Aib]GPSSGAPPPSEG-NH2 [Example 71]	48.1	1010	2800	58.8	68.6	3.12	0.105	8.74
H-Y[Aib]QGTFTSDFS[Orn][αMeL]LDKK([AEEA-AEEA-γGlu-C20 diacid])AQ[Aib]AFIEYLLE[Aib]GPSSGEPPPGEG-NH2 [Example 69]	25.6	279	387	71.9	58.2	3.25	0.136	4.75
H-Y[Aib]QGTFTSDFS[Orn][αMeL]LDKK([AEEA-γGlu-C18 diacid])AQ[Aib]AFIEWLLEGGHSSGAPPPSGE-NH2 [Example 122]	32.6	468	548	57.4	43.7	3.93	0.189	3.95
H-Y[Aib]QGTFTSDFS[Orn][αMeL]LDKK([AEEA-γGlu-C18 diacid])AQ[Aib]AFIEWLLEGGHSSGAPPPSGT-NH2 [Example 171]	27.1	287	502	61.4	36.1	2.89	0.2	3.86
H-Y[Aib]QGTFTSDFS[Orn][αMeL]LDKK([AEEA-γGlu-C18 diacid])AQ[Aib]AFIEWLLEGGPSSGAPPPSGS-NH2 [Example 168]	31.9	281	1270	74.8	38.7	2.44	0.233	5.54
H-Y[Aib]QGTFTSDFS[Orn][αMeL]LDKK([AEEA-γGlu-C18 diacid])AQ[Aib]AFIEWLLEGGSSSGAPPPSGE-NH2 [Example 172]	29.3	457	605	121	41.4	3.5	0.174	3.38
H-Y[Aib]QGTFTSDFS[Orn][αMeL]LDKK([AEEA-γGlu-C18 diacid])AQ[Aib]AFIEWLLEGGSSSGAPPPSGS-NH2 [Example 173]	49.9	293	745	97.1	38.6	2.32	0.168	3.6
H-Y[Aib]QGTFTSDFS[Orn][αMeL]LDKK([AEEA-γGlu-C18 diacid])AQ[Aib]AFIEWLLEGGTSSGAPPPSGE-NH2 [Example 175]	29.6	386	579	116	49.2	4	0.218	4.92
H-Y[Aib]QGTFTSDFS[Orn][αMeL]LDKK([AEEA-γGlu-C18 diacid])AQ[Aib]AFIEWLLEGGTSSGAPPPSGS-NH2 [Example 176]	40.7	389	461	103	48	2.92	0.212	4.1
H-Y[Aib]QGTFTSDFS[Orn][αMeL]LDKK([AEEA-γGlu-C18 diacid])AQ[Aib]AFIEWLLEGGTSSGAPPPSGT-NH2 [Example 177]	34.8	483	758	79.4	44	2.97	0.213	4.22
H-Y[Aib]QGTFTSDFS[Orn][αMeL]LDKK([AEEA-γGlu-C18 diacid])AQ[Aib]AFIEYLIE[Aib]GESSGAPPPSGE-NH2 [Example 219]	23.3	221	1870	48	37.2	0.835	0.119	7.77
H-Y[Aib]QGTFTSDFS[Orn][αMeL]LDKK([AEEA-γGlu-C18 diacid])AQ[Aib]AFIEYLIE[Aib]GESSGAPPPSGS-NH2 [Example 218]	15	152	1480	80.5	35	0.76	0.0853	7.89
H-Y[Aib]QGTFTSDFS[Orn][αMeL]LDKK([AEEA-γGlu-C18 diacid])AQ[Aib]AFIEYLLAGGPSSGAPPPEGE-NH2 [Example 99]	29.5	588	1130	56.9	46.1	3.54	0.174	6.09
H-Y[Aib]QGTFTSDFS[Orn][αMeL]LDKK([AEEA-γGlu-C18 diacid])AQ[Aib]AFIEYLLAGGPSSGAPPPSGD-NH2 [Example 85]	22.1	387	1270	326	48.3	2.73	0.157	7.63
H-Y[Aib]QGTFTSDFS[Orn][αMeL]LDKK([AEEA-γGlu-C18 diacid])AQ[Aib]AFIEYLLAGGPSSGAPPPSGE-NH2 [Example 86]	19.6	421	1130	57.8	52.5	2.43	0.145	7.23
H-Y[Aib]QGTFTSDFS[Orn][αMeL]LDKK([AEEA-γGlu-C18 diacid])AQ[Aib]AFIEYLLAGGPSSGAPPPSGS-NH2 [Example 95]	18.2	380	1130	37.8	49.3	1.95	0.116	8.41
H-Y[Aib]QGTFTSDFS[Orn][αMeL]LDKK([AEEA-γGlu-C18 diacid])AQ[Aib]AFIEYLLAGGPSSGAPPPSGSE-NH2 [Example 90]	24.9	371	990	70.8	49.8	2.68	0.173	9.58
H-Y[Aib]QGTFTSDFS[Orn][αMeL]LDKK([AEEA-γGlu-C18 diacid])AQ[Aib]AFIEYLLAGGPSSGAPPPSGT-NH2 [Example 87]	12.8	290	1110	61.8	45.4	2.75	0.128	8.51
H-Y[Aib]QGTFTSDFS[Orn][αMeL]LDKK([AEEA-γGlu-C18 diacid])AQ[Aib]AFIEYLLAGGPSSGEPPPSGE-NH2 [Example 97]	23.9	605	1270	51.9	50.7	3.23	0.176	6.73
H-Y[Aib]QGTFTSDFS[Orn][αMeL]LDKK([AEEA-γGlu-C18 diacid])AQ[Aib]AFIEYLLEGGHSSGAPPPGGS-NH2 [Example 162]	37.5	786	558	48.8	44.8	4.72	0.222	4.72
H-Y[Aib]QGTFTSDFS[Orn][αMeL]LDKK([AEEA-γGlu-C18 diacid])AQ[Aib]AFIEYLLEGGHSSGEPPPGGS-NH2 [Example 164]	59	962	411	45.9	46.5	5.02	0.302	2.92
H-Y[Aib]QGTFTSDFS[Orn][αMeL]LDKK([AEEA-γGlu-C18 diacid])AQ[Aib]AFIEYLLEGGPSSGAPPPGGS[AEEA]-NH2 [Example 66]	29.9	329	415	42.1	46.3	3.86	0.219	3.71
H-Y[Aib]QGTFTSDFS[Orn][αMeL]LDKK([AEEA-γGlu-C18 diacid])AQ[Aib]AFIEYLLEGGPSSGAPPPGGT-NH2 [Example 158]	24.7	184	325	104	52.4	2.49	0.245	3.72
